Measured values as given in US20030113421A1, “Synergistic combinations of natural of compounds that control decay of fruits and vegetables and reduce contamination by foodborne human pathogens” (priority 2001, published 2003).
Read-outs that look alike come from different tables or passages of the source.

Experiments:
[1] = system: E. coli; type: cell-based, Escherichia coli; conditions: for concentration at which inhibitory to E. coli growth: essential oil tested individually
Experimental: (§1) E. coli (Strain #139 HB101/p5G6) was grown at 24° C. for 48 hr in shake-flask cultures of Lennox broth (LB). Bacterial cells were pelleted by centrifugation in a Sorvall RC-58 centrifuge (Dupont Instruments, Wilmington, Del.) at 3000 g for 20 min, resuspended in sterile distilled water, and centrifuged again. The resulting pellets were dispersed in sterile distilled water and the cell concentration was adjusted to 10^6 CFU per ml using a standard optical density (OD) curve with the OD values of 0.1 and 1 representing viable cell counts of 1×10^6 and 1×10^9, respectively. E. coli 015:H7 and L. monocytogenes isolates were grown overnight at 37° C. in trypticase soy broth and brain heart infusion, respectively. The concentration of cells was adjusted to 10^6 CFU per ml. Botrytis cinerea and Penicillium expansum were isolated from infected fruit and maintained on potato dextrose agar (PDA). A spore suspension was obtained by flooding 2 wk cultures of B. cinerea with sterile distilled water containing 0.1% (v/v) TWEEN 80. Spore counts were determined with a hemacytometer and spore concentrations were adjusted with sterile distilled water to obtain 10^5 spores per ml.
(§2) The individual effects of various essential oils and chitosan salts, and the combined effects of essential oils and chitosan salts on the growth of the indicator organism E. coli and on the postharvest pathogen B. cinerea were determined. To measure the effects of the various treatments on spore germination of B. cinerea and growth of the E. coli, the essential oils: bay, cinnamon, savory, thyme red, allspice, birch, cloves, carvacrol, and hinokitiol (Aroma Vera, Cuber City, Calif.) and MMW chitosan in acetic, propionic, and sorbic acids were combined together with B. cinerea or E. coli to yield final concentrations of 0.1 to 0.025% for the essential oils and 0.1 to 0.0016% for the chitosan salts. For the assays, 500 spores of B. cinerea were added to each treatment in microtiter dishes or three ml of a 2X concentration of E. coli (i.e., 2×10^6 CFU/ml) were combined with three ml of a 2X concentration of treatment in a 15 ml centrifuge tube, agitated overnight, and plated after 24 hr onto LB agar plates (100 μl suspension/plate). The surfactant (Triton×100) was present at a final concentration of 0.04%. […] Four replicate tubes of each treatment were used; each experiment was repeated twice. The viable bacterial cell number was counted by surface plating serially diluted samples in triplicate on LB agar medium. Plates were incubated at 24° C. and colonies were counted at 48 hr. Botrytis spore germination was determined microscopically.

[2] = system: E. coli on apple disks; set-up: species or system Escherichia coli
Experimental: as §1
Tree-ripe apples (Malus domestica Borkh) cultivar ‘Red delicious’ were hand-picked at harvest maturity at the Appalachian Fruit Research Station, Kearneysville, W. Va. Fruit were sorted to remove any with apparent injuries or infections and stored at 4° C. under refrigeration before being used in the biocontrol tests. Apple disks (10 mm) were excised from selected Red delicious apples using a cork borer. Apple disks were treated by immersion for 90 min in a 0.1% solution of various essential oils and/or their combinations with 0.1 % chitosan salts. Disks were either treated with the different combinations of natural compounds and then inoculated with E. coli by soaking apple disks in a solution of E. coli for 90 min or inoculated with E. coli and incubated at 24° C. for 24 hr. From each treatment four disks were selected randomly, individually homogenized in 5 ml of sterile water, vortexed, and dilution plated in triplicate on a LB agar medium. Plates were incubated at 24° C. and colonies were counted after 48 hr.

[3] = system: B. cinerea; experiment: Effect of concentration and of synergistic combinations of essential oils and chitosan salts on spore germination of B. cinerea; type: cell-based, Botrytis cinerea
Experimental: as §1, §2

[4] = essential oil alone 0.025% v/v, CFU in 100 μl sample
[5] = essential oil alone 0.05% v/v, CFU in 100 μl sample
[6] = essential oil alone 0.075% v/v, CFU in 100 μl sample
[7] = essential oil alone 0.1% v/v, CFU in 100 μl sample

Cc1ccc(C(C)C)cc1O [Carvacrol, carvacrol]
Growth of E. coli (CFU), synergy table [1]: 1430 CFU
Growth of E. coli (CFU) [1, 4]: TNTC
Growth of E. coli (CFU) [1, 5]: 0 CFU
Growth of E. coli (CFU) [1, 6]: 0 CFU
Growth of E. coli (CFU) [1, 7]: 0 CFU
concentration at which inhibitory to E. coli growth [1]: 0.05%

CC=CC=CC(=O)O [Sorbate]
Eradicant Activity E. coli (CFU) [2]: TNTC
Protectant Activity E. coli (CFU) [2]: TNTC

CC(C)c1cccc(=O)c(O)c1 [Hinokitiol, hinokitiol]
Growth of E. coli (CFU), combination [1]: 60 CFU
Growth of E. coli (CFU), combination ([1]; essential oil 0.075% + Chitosan acetate 0.0032%, CFU in 100 μl sample): 102 CFU
Growth of E. coli (CFU), combination ([1]; essential oil 0.075% + Chitosan propionate 0.0032%, CFU in 100 μl sample): 56 CFU
Growth of E. coli (CFU), synergy table ([1]; essential oil 0.075% + Water (no chitosan salt), CFU in 100 μl sample): 1108 CFU
Growth of E. coli (CFU) [1, 4]: TNTC
Growth of E. coli (CFU) [1, 5]: TNTC
Growth of E. coli (CFU) [1, 6]: 812 CFU
Growth of E. coli (CFU) [1, 7]: 0 CFU
concentration at which inhibitory to E. coli growth [1]: 0.075%
Percent Inhibition of Spore Germination, combination [3]: 100%
Percent Inhibition of Spore Germination, combination ([3]; essential oil 0.067% + Chitosan acetate 0.02%): 100%
Percent Inhibition of Spore Germination, combination ([3]; essential oil 0.067% + Chitosan propionate 0.02%): 100%
Percent Inhibition of Spore Germination, synergy table ([3]; essential oil 0.067% + Water (no chitosan salt)): 0%

CCC(=O)O [Propionate]
Eradicant Activity E. coli (CFU) ([2]; apple disks immersed in 10^6 CFU per ml E. coli for 90 min, drained, then treated (0.1% v/v)): TNTC
Protectant Activity E. coli (CFU) ([2]; apple disks treated (0.1% v/v), thereafter immersed in 10^6 CFU per ml E. coli for 90 min, CFU in 100 ml sample): TNTC
